Measurements reported in patent US20040229246A1, “Diagnostic markers for therapeutic treatment” (Can-Fite Biopharam Ltd., priority 2002, published 2004).
“Also recorded” adds a separate entry of the source. Peptide text beside a SMILES is read from it. * marks the point of attachment. Cbz = O=C(OCc1ccccc1)*

Tests used:
PKA and GSK-3β = assay: Receptor functionality: Western blot of PKA and GSK-3β in B16-F10 melanoma cells; type: cell-based
Experimental: (§1) To detect the level of expression of the A3AR proteins Western blot analysis was performed. Cells were incubated in the presence and absence of IB-MECA (10 nM), MRS1523 (10 nM), Forskolin (50 nM), 8 Br cAMP (100 μM), Cycloheximide 20 μg/ml or MG 132 (20 nM) for different time periods at 37° C. Cells were then rinsed with ice-cold PBS and transferred to ice-cold lysis buffer (TNN buffer, 50 mM Tris buffer pH=7.5, 150 mM NaCl, NP 40). In the experiment examining the effect of trypsin on A3AR expression, cells were incubated with 0.5 ml of 0.25% trypsin for 5 minutes. The trypsinized cells were washed again with ice-cold PBS, harvested by centrifugation and subjected to lysis in TNN buffer. Cell debris was removed by centrifugation for 10 minutes, at 7500 xg. The supernatant was utilized for Western Blot analysis. Protein concentrations were determined using the Bio-Rad protein assay dye reagent. Equal amounts of the sample (50 μg) were separated by SDS-PAGE, using 12% polyacrylamide gels. The resolved proteins were then electroblotted onto nitrocellulose membranes (Schleicher & Schuell, Keene, NH, USA). Membranes were blocked with 1% bovine serum albumin and incubated with the desired primary antibody (dilution 1:1000) for 24 hours at 4° C. Blots were then washed and incubated with a secondary antibody for 1 hour at room temperature. Bands were recorded using BCIP/NBT color development kit (Promega, Madison, W1, USA). Data presented in the different figures are representative of at least three different experiments.
To test receptor functionality, the protein expression level of PKA and GSK-3β, which are modulated downstream to A3AR activation, was examined. Functional receptor sensitization by IB-MECA was observed after 15 and 60 minutes and was manifested by decreased PKA and increased GSK-3β levels. […] Indeed, the modulatory effect of IB-MECA on PKA and GSK-3β was reversed in the presence of the above agents (FIG. 8a, 8b and 8c).

A3AR [1] = assay: Northern blot analysis of A3AR mRNA in B16-F10 melanoma cells; type: cell-based; settings: B16-F10 melanoma cells, antagonist with IB-MECA
Experimental: Total RNA was isolated from B16-F10 melanoma cells treated with IB-MECA, utilizing Tri-reagent (Sigma, Saint Louis). The samples were then subjected twice to phenol:chloroform extraction and washed with chloroform. RNA was precipitated with sodium acetate/ethanol following washing with ethanol, then denatured, separated (25 μg per lane) in 1.1% formaldehyde agarose gels and transferred to Hybond-N membrane. The 390 bp EcoRI fragment from A3AR cDNA clone of mouse (TAA3I.S), kindly supplied by Dr Kathia Ravid, was prepared by random-primed synthesis. Probes were used in RNA blot analysis at a hybridization temperature of 42° C. in the presence of 50% formamide.

[2] = test system: adjuvant induced arthritis; assay: Adjuvant induced arthritis (AIA) in rats, clinical and histological score; type: in vivo; settings: administered 30 minutes prior to IB-MECA
Experimental: AIA in Rats: Female Lewis rats, aged 8-12 weeks, obtained from Harlan Laboratories (Jerusalem, Israel), were injected subcutaneously (s.c.) at the tail base with 100 μl of suspension composed of incomplete Freund's adjuvant (IFA) with 10 mg/ml heat killed Mycobacterium tuberculosis, (Mt) H37Ra, (Difco, Detroit, USA). To assess the clinical disease activity score, the animals were inspected every second day for clinical arthritis. The scoring system ranged from 0-4 of each limb: 0-no arthritis; 1-redness or swelling of one toe/finger joint; 2-redness and swelling of more than one toe/finger joints; 3-the ankle and tarsal-metatarsal joints involvement; 4-entire paw redness or swelling. The arthritic score was calculated by adding the four individual legs' score to a maximum of 16. For histological scoring, Animals were sacrificed, the legs were removed up to the knee level, fixed in 10% formaldehyde, decalcified, dehydrated, paraffin-embedded, cut into 4 μm sections and stained by Hematoxylin-Eosin. The assessment of all pathologic findings were performed blind using semi-quantitative grading scales of 0 to 4 for the following parameters: a) extent of inflammatory cells' infiltration to the joint tissues; b) synovial lining cell hyperplasia; c) pannus formation; and d) joint cartilage layers destruction. […] TNF-α was measured in synovia, DLN and spleen tissues derived from control and CF101 treated rats. […] Protein concentrations were determined using the Bio-Rad protein assay dye reagent. […] Bands were recorded using BCIP/NBT color development kit (Promega, Madison, Wis., USA). Densitometry of protein expression was normalized against β-actin and expressed as % of control. […]

[3] = test system: A3AR, A2AR, PI3K, PKB/Akt, IKKα/β, NF-κB, TNF-α, GSK-3β, caspase-3; assay: Western blot of A3AR and downstream signaling proteins in DLN and synovial tissue of AIA rats; type: in vivo; settings: antagonist followed by IB-MECA
A3AR [4] = target: T1, A3AR (Mus musculus, UniProt Q61618); assay: Western blot analysis of A3AR protein in B16-F10 melanoma cells; type: cell-based; settings: B16-F10 melanoma cells exposed for 180 minutes to IB-MECA in the presence of the inhibitor
T1 construct: endogenous in cells; host or cells: B16-F10 melanoma cells
T1 sequence (Q61618 1-319): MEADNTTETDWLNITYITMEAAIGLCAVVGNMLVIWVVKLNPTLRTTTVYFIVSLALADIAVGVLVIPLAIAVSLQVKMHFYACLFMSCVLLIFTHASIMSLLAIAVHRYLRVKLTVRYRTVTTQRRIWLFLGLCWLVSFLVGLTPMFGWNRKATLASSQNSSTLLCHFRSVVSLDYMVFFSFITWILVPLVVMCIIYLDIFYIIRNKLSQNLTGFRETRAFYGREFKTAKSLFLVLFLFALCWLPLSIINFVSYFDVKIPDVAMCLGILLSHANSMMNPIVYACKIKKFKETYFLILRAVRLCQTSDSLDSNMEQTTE
Experimental: as §1
Receptor internalization by treating melanoma cells with trypsin, which removes the cell surface receptor, was examined.
Time dependent expression of A3AR in the melanoma cells was examined by Western blot analysis.

In the case of Nc1ncnc2c1nc(Br)n2[C@@H]1O[C@@H]2COP(=O)(O)O[C@H]2[C@H]1O [8-Br-cAMP], the “modulatory effect of IB-MECA on PKA and GSK-3β in the presence of the agent” value (PKA and GSK-3β) is reported as “reversed”.

For CCCOC(=O)c1c(-c2ccccc2)nc(CC)c(C(=O)SCC)c1CCC [MRS1523], the “effect on IB-MECA-induced A3AR mRNA expression” value (A3AR [1]) was “reversed the increase in mRNA expression” and the “modulatory effect of IB-MECA on PKA and GSK-3β in the presence of the agent” value (PKA and GSK-3β) was “reversed”.

In the case of O=C(Cc1ccccc1)Nc1nc2ccc(Cl)cc2c2nc(-c3ccco3)nn12 [MRS 1220], the “effect on the anti-inflammatory response of IB-MECA (clinical score)” value [2] is reported as “nullified; also recorded: nullification” and the “effect on IB-MECA-induced A3AR modulation” value [3] is reported as “blocked this modulation”.

For CC(C)C[C@@H](C=O)NC(=O)[C@H](CC(C)C)NC(=O)[C@H](CC(C)C)NC(=O)OCc1ccccc1 [MG132] (Cbz-Leu-Leu-Leu-aldehyde), the “effect on IB-MECA-induced modulation of A3AR protein expression” value (A3AR [4]) was “prevented A3AR down-regulation”.

With C[C@@H]1C[C@@H]([C@H](O)CC2CC(=O)NC(=O)C2)C(=O)[C@@H](C)C1 [cycloheximide] the “effect on IB-MECA-induced modulation of A3AR protein expression” value (A3AR [4]) was “inhibited receptor up-regulation”.
